Experimental data from ChEMBL document CHEMBL5291721, “A preclinical secondary pharmacology resource illuminates target-adverse drug reaction associations of marketed drugs” (Nat Commun, 2023).

Assays:
[1] = biological target: Sodium-dependent dopamine transporter (Homo sapiens, UniProt Q01959)
[2] = biological target: 3',5'-cyclic-AMP phosphodiesterase 4A (Homo sapiens, UniProt P27815); type: functional
Progesterone receptor = biological target: T1, Progesterone receptor (Homo sapiens, UniProt P06401)
T1 sequence (P06401 whole entry): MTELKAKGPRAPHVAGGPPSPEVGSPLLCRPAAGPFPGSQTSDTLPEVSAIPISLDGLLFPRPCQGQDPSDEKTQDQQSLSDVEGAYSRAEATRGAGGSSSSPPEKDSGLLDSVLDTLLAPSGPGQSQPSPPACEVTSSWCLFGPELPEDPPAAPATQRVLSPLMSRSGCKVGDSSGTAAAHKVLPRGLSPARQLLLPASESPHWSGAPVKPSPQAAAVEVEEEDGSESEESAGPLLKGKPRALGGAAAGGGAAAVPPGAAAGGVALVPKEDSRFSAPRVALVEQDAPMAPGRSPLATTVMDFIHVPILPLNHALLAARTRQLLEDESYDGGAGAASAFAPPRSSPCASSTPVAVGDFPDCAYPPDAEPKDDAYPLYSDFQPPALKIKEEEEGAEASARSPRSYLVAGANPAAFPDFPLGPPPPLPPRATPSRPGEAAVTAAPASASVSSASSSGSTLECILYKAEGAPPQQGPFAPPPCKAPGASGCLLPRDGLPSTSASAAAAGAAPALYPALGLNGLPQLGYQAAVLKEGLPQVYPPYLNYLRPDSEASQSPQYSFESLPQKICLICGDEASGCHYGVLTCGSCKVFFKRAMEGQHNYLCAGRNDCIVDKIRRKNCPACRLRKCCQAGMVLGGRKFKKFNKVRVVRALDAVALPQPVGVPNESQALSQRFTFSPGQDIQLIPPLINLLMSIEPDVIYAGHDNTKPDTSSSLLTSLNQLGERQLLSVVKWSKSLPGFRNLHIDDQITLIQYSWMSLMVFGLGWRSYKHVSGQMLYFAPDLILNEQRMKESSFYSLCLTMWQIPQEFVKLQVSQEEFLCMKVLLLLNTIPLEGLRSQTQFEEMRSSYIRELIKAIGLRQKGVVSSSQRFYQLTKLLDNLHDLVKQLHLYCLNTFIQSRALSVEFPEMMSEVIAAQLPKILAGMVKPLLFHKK

[3] = biological target: T2, Amine oxidase [flavin-containing] A (Homo sapiens, UniProt P21397); type: functional
T2 sequence (P21397 whole entry): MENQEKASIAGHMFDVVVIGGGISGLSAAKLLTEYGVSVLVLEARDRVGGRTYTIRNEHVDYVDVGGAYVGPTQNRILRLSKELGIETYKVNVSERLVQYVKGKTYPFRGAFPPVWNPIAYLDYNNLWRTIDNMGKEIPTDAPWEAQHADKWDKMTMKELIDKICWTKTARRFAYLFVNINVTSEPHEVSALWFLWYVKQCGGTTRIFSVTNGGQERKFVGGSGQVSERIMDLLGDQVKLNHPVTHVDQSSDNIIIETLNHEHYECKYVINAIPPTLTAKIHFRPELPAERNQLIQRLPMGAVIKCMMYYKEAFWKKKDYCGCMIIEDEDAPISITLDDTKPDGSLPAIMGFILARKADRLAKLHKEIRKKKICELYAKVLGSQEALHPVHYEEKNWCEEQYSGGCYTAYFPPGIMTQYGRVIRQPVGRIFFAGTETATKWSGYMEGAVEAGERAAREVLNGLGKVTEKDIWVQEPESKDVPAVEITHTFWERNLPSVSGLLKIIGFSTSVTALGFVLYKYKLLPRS

[4] = biological target: Voltage-gated inwardly rectifying potassium channel KCNH2 (Homo sapiens, UniProt Q12809); type: functional; conditions: read-out: AC50
Prothrombin = Prothrombin (Homo sapiens, UniProt P00734); type: functional
[5] = biological target: 5-hydroxytryptamine receptor 2B (Homo sapiens, UniProt P41595); type: functional, cell-based
[6] = biological target: T3, Muscarinic acetylcholine receptor M2 (Homo sapiens, UniProt P08172)
T3 sequence (P08172 whole entry): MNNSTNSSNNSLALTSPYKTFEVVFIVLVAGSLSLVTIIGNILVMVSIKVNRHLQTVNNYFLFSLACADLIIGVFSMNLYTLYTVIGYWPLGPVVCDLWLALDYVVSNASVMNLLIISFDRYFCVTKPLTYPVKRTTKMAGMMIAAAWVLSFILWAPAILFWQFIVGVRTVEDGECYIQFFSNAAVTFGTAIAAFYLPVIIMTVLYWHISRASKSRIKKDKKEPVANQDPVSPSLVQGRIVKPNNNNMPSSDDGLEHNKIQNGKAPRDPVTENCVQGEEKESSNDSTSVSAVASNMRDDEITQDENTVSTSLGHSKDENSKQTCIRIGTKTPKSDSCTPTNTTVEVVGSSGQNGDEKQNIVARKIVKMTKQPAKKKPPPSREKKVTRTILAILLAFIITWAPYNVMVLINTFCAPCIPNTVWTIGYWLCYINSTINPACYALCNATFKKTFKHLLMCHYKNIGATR

[7] = biological target: T4, 5-hydroxytryptamine receptor 1A (Homo sapiens, UniProt P08908)
T4 sequence (P08908 whole entry): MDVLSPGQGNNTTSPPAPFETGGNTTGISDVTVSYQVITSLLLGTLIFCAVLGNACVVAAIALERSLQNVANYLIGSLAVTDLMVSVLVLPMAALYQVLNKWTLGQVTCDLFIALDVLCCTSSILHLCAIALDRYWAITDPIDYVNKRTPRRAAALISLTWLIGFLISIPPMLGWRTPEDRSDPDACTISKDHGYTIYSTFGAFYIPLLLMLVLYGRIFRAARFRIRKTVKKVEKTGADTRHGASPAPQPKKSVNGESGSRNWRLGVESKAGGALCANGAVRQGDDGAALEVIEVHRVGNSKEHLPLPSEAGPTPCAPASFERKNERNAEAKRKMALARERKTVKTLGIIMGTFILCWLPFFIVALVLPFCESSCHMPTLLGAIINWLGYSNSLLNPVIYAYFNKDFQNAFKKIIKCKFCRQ
Note: assay procedure not described here.

3',5'-cyclic-AMP phosphodiesterase 4A, sequence (P27815 whole entry): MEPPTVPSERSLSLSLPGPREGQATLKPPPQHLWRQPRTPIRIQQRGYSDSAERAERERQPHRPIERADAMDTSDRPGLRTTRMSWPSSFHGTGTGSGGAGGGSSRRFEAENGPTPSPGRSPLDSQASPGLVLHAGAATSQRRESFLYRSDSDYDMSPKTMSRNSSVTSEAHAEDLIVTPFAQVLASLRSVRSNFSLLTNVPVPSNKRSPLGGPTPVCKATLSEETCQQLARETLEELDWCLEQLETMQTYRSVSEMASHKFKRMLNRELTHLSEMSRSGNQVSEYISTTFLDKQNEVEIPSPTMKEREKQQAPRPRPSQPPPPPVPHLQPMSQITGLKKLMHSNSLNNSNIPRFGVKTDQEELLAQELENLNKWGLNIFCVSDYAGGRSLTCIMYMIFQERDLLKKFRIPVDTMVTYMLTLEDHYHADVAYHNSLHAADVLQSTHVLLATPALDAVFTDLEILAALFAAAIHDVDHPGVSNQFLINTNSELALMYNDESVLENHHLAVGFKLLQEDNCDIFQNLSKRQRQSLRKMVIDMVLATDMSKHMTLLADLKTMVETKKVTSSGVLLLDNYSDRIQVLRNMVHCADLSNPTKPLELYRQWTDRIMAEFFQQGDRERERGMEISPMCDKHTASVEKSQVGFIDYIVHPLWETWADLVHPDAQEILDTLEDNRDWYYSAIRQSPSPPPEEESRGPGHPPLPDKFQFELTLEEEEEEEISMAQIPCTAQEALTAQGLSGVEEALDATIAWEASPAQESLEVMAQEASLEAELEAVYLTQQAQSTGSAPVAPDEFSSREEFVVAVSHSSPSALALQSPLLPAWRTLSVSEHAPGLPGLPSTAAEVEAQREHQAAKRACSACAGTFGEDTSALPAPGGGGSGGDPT
5-hydroxytryptamine receptor 2B, sequence (P41595 whole entry): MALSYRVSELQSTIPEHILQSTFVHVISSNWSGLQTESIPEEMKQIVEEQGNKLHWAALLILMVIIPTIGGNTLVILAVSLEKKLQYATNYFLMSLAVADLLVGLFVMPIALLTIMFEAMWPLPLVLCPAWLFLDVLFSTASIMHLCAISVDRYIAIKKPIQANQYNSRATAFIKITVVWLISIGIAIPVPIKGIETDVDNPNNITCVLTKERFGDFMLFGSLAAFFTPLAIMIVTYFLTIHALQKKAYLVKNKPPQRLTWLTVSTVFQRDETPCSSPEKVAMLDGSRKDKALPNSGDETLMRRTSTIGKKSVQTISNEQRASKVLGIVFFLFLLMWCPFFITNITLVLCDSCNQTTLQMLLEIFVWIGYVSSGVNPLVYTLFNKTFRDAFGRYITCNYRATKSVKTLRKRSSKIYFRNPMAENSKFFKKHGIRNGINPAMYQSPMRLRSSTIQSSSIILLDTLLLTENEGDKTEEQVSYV
Voltage-gated inwardly rectifying potassium channel KCNH2, sequence (Q12809 whole entry): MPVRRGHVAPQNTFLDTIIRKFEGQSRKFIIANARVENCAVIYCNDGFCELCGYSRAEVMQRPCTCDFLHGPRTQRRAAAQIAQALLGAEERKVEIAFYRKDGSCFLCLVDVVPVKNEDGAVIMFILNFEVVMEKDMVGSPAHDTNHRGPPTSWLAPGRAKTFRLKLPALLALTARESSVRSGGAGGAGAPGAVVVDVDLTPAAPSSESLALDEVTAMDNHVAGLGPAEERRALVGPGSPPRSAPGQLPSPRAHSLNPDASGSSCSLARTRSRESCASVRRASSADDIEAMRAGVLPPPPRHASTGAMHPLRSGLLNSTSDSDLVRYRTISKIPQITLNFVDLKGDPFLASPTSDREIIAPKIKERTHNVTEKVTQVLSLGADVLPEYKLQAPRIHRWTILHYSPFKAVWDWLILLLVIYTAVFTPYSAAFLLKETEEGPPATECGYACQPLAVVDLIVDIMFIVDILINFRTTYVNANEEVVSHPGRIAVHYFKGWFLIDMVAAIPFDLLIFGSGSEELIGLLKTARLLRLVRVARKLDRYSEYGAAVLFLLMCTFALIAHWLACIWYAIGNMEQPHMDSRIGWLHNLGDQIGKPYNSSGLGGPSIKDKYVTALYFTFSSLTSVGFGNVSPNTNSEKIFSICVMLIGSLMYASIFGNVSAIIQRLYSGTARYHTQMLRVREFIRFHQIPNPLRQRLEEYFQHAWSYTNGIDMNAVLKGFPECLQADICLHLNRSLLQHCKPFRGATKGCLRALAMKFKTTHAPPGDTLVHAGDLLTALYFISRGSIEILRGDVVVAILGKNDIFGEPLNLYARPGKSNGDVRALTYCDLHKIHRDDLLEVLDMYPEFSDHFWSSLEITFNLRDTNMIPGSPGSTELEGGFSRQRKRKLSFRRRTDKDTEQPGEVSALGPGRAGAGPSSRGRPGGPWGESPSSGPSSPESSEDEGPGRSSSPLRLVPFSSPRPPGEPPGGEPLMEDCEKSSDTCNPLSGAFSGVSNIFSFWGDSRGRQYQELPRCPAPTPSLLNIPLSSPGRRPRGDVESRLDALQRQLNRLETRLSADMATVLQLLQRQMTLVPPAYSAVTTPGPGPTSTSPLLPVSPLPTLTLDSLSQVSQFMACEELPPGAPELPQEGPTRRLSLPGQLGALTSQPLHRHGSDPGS
Sodium-dependent dopamine transporter, sequence (Q01959 whole entry): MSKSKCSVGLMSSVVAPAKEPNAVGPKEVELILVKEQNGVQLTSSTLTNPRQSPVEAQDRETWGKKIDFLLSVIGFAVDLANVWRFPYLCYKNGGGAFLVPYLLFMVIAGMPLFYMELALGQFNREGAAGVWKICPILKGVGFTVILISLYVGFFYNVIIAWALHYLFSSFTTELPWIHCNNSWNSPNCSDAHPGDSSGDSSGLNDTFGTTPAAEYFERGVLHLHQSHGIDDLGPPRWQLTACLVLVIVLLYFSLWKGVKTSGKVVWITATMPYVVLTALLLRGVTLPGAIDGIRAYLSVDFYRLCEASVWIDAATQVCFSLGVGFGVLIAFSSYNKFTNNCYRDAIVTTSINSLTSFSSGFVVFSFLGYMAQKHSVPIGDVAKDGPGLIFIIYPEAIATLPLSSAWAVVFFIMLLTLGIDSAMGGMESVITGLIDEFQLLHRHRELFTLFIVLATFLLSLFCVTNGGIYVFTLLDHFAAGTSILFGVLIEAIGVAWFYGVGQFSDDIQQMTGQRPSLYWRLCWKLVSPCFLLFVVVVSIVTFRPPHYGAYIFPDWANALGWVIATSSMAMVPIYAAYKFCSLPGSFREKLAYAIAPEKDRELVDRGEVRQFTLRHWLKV

Structure (SMILES) | AC50 [1] [µM] | AC50 [2] [µM] | AC50 (Progesterone receptor) [µM] | AC50 [3] [µM] | AC50 [4] [µM] | AC50 (Prothrombin) [µM] | AC50 [5] [µM] | AC50 [6] [µM] | AC50 [7] [µM]
CC(C1=C(CCN(C)C)Cc2ccccc21)c1ccccn1 (stereo not given) | > 30 | > 30 | > 30 | > 30 | 2.7 | > 30 | > 30 | 0.0784 | 8.78
CC(=O)OC(C)OC(=O)C(C)c1ccc(-c2ccccc2)c(F)c1 (stereo not given) | > 30 | 20.2 | 25.4 | > 30 | > 30 | > 30 | > 30 | > 30 | > 30
C[C@H](N)C(=O)O [ALANINE] | > 30 | > 30 | > 30 | > 30 | > 30 | > 30 | > 30 | > 30 | > 30
O=C1c2c(O)cccc2Cc2cccc(O)c21 [ANTHRALIN] | > 3 | 0.262 | > 30 | > 30 | > 1 | > 30 | > 30 | > 3 | > 30
COC(=O)C1=C(C)NC(C)=C(C(=O)O[C@H]2CCN(Cc3ccccc3)C2)[C@H]1c1cccc([N+](=O)[O-])c1 [BARNIDIPINE] | 1.9 | > 30 | 5.55 | > 30 | 1.8 | > 30 | > 30 | 2.35 | 6.56
C[C@@H](O)[C@H]1C(=O)N2C(C(=O)[O-])=C(SC3Cn4cnc[n+]4C3)[C@H](C)[C@H]12 (stereo not given in full) [BIAPENEM] | > 30 | > 30 | > 30 | > 30 | > 30 | > 30 | > 30 | > 30 | > 30
CCCCOc1ccc(CC(=O)NO)cc1 [BUFEXAMAC] | > 30 | 0.53 | > 30 | > 30 | > 30 | > 30 | > 30 | > 30 | > 30
Nc1ncnc(Nc2ccc(Cl)cc2)n1 [CHLORAZANIL] | > 30 | 19.7 | > 30 | > 30 | > 30 | > 30 | > 30 | > 30 | > 30
CC[C@H]1OC(=O)[C@H](C)[C@@H](O[C@H]2C[C@@](C)(OC)[C@@H](O)[C@H](C)O2)[C@H](C)[C@@H](O[C@@H]2O[C@H](C)C[C@H](N(C)C)[C@H]2O)[C@](C)(OC)C[C@@H](C)C(=O)[C@H](C)[C@@H](O)[C@]1(C)O [CLARITHROMYCIN] | > 30 | > 30 | > 30 | > 30 | > 30 | > 30 | > 30 | > 30 | > 30
CCC[C@@H]1C[C@@H](C(=O)N[C@@H]([C@H]2O[C@H](SC)[C@H](OP(=O)(O)O)[C@@H](O)[C@H]2O)[C@H](C)Cl)N(C)C1 [CLINDAMYCIN PHOSPHATE] | > 30 | > 30 | > 30 | > 30 | > 30 | > 30 | > 30 | > 30 | > 30
Cc1onc(-c2c(Cl)cccc2Cl)c1C(=O)N[C@@H]1C(=O)N2[C@@H]1SC(C)(C)[C@@H]2C(=O)O [DICLOXACILLIN] | > 30 | > 30 | > 30 | > 30 | > 30 | > 30 | > 30 | > 30 | > 30
O=C(CCCN1CC=C(n2c(=O)[nH]c3ccccc32)CC1)c1ccc(F)cc1 [DROPERIDOL] | > 30 | > 30 | > 30 | > 30 |  | > 30 | > 30 | > 30 | > 30
CC(N)CCCC(C)(C)O (stereo not given) [HEPTAMINOL] | > 30 | > 30 | > 30 | > 30 |  | > 30 | > 30 | > 30 | > 30
CC1(C)S[C@@H]2[C@H](NC(=O)[C@H](NC(=O)N3CCN(S(C)(=O)=O)C3=O)c3ccccc3)C(=O)N2[C@H]1C(=O)O [MEZLOCILLIN] | > 30 | > 30 | > 30 | > 30 |  | > 30 | > 30 | > 30 | > 30
CCC(=O)O[C@@H]1CC(=O)O[C@H](C)C/C=C/C=C/[C@H](OC(C)=O)[C@H](C)C[C@H](CC=O)[C@H](O[C@@H]2O[C@H](C)[C@@H](O[C@H]3C[C@@](C)(OC(C)=O)[C@@H](OC(=O)CC)[C@H](C)O3)[C@H](N(C)C)[C@H]2O)[C@H]1OC [MIOCAMYCIN] | > 30 | > 30 | > 30 | > 30 |  | > 30 | > 30 | > 30 | > 30
CC(c1ccc(Cl)c(Cl)c1)N1N=C(N)CC1=O (stereo not given) [MUZOLIMINE] | > 30 | > 30 | > 30 | > 30 |  | > 30 | > 30 | > 30 | > 30
c1cc(CN2CCCNCCNCCCNCC2)ccc1CN1CCCNCCNCCCNCC1 [PLERIXAFOR] | > 30 | > 30 | > 30 | > 30 |  | > 30 | > 30 | > 30 | > 30
O=C(NC(Cc1cc(=O)[nH]c2ccccc12)C(=O)O)c1ccc(Cl)cc1 (stereo not given) [REBAMIPIDE] | > 30 | > 30 | > 30 | > 30 |  | > 30 | > 30 | > 30 | > 30
